Experimental findings from US20100317528A1, “HERBICIDE CONTAINING BENZOYLPYRAZOLE COMPOUND” (ISHIHARA SANGYO KAISHA, LTD., priority 2006, published 2010) are described below.

Assay type in all cases: in vivo
Test [1] deals with barnyardgrass (Echinochloa crus-galli L.). In words: Test Example 1: foliar treatment, upland pot test, barnyardgrass. Particulars: 31 g/ha active ingredient, observed 17th to 25th day after application; for inhibition at 31 g/ha: Echinochloa crus-galli, read-out: Growth inhibition rate (%) Barnyardgrass.
Test [2] concerns crabgrass (Digitaria sanguinalis L.). The test can be described thus: Test Example 1: foliar treatment, upland pot test, crabgrass. The following applies: 31 g/ha active ingredient, observed 17th to 25th day after application; for inhibition at 31 g/ha: Digitaria sanguinalis, read-out: Growth inhibition rate (%) Crabgrass.
Test [3] concerns green foxtail (Setaria viridis L.). The test can be described thus: Test Example 1: foliar treatment, upland pot test, green foxtail. The following applies: 31 g/ha active ingredient, observed 17th to 25th day after application; for inhibition at 31 g/ha: Setaria viridis, read-out: Growth inhibition rate (%) Green foxtail.
Test [4] deals with redroot pigweed (Amaranthus retroflexus L.). In words: Test Example 1: foliar treatment, upland pot test, redroot pigweed. The following applies: 31 g/ha active ingredient, observed 17th to 25th day after application; for inhibition at 31 g/ha: Amaranthus retroflexus, read-out: Growth inhibition rate (%) Redroot pigweed. The gist of the method: (§1)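 Upland soil pots, sown; foliar spray at pigweed cotyledon–2.0 leaf, velvetleaf 0.1–1.5 leaf, rice 1.0–3.0 leaf, wheat 1.7–3.4 leaf. WP/EC formulations, prescribed a.i. rate, 500 L/ha spray volume + 0.1 vol % spreader. Visual % inhibition, d17–25.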

For test [5], the system named is prickly sida (Sida spinosa L.). In words: Test Example 1: foliar treatment, upland pot test, prickly sida. The following applies: 31 g/ha active ingredient, observed 17th to 25th day after application; for inhibition at 31 g/ha: Sida spinosa, read-out: Growth inhibition rate (%) Prickly sida.
Test [6] has as its system velvetleaf (Abutilon theophrasti MEDIC.). The test can be described thus: Test Example 1: foliar treatment, upland pot test, velvetleaf. The following applies: 31 g/ha active ingredient, observed 17th to 25th day after application; for inhibition at 31 g/ha: Abutilon theophrasti, read-out: Growth inhibition rate (%) Velvetleaf. The gist of the method:
as §1

The subject of test [7] is rice (Oryza sativa L.). In words: Test Example 1: foliar treatment, upland pot test, rice. Particulars: 31 g/ha active ingredient, observed 17th to 25th day after application; for inhibition at 31 g/ha: Oryza sativa, read-out: Growth inhibition rate (%) Rice. Summed up:
as §1

Test [8] concerns wheat (Triticum spp.). In words: Test Example 1: foliar treatment, upland pot test, wheat. Particulars: 31 g/ha active ingredient, observed 17th to 25th day after application; for inhibition at 31 g/ha: Triticum, read-out: Growth inhibition rate (%) Wheat. The gist of the method: as §1
The test system of test [9] is corn (Zea mays L.). In words: Test Example 1: foliar treatment, upland pot test, corn. The following applies: 31 g/ha active ingredient, observed 17th to 25th day after application; for inhibition at 31 g/ha: Zea mays, read-out: Growth inhibition rate (%) Corn.
In test [10] the test system is soybean (Glycine max Merr.). The test can be described thus: Test Example 1: foliar treatment, upland pot test, soybean. The following applies: 31 g/ha active ingredient, observed 17th to 25th day after application; for inhibition at 31 g/ha: Glycine max, read-out: Growth inhibition rate (%) Soybean.
For test [11], the system named is barnyardgrass (Echinochloa crus-galli L.). In words: Test Example 2: soil application on the day after sowing, barnyardgrass. Particulars: 250 g/ha active ingredient, observed 19th to 28th day after application; for inhibition at 250 g/ha: Echinochloa crus-galli, read-out: Growth inhibition rate (%) Barnyardgrass. Summed up:
(§2)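 Seeds sown in upland field soil in 1/170,000 ha pots; next day, wettable powder or emulsifiable concentrate formulations were diluted in water at 500 L/ha and sprayed onto the soil. Growth was scored visually 19–28 days after application as growth inhibition (0% = untreated, 100% = complete kill).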

The test system of test [12] is crabgrass (Digitaria sanquinalis L.). The test can be described thus: Test Example 2: soil application on the day after sowing, crabgrass. Particulars: 250 g/ha active ingredient, observed 19th to 28th day after application; for inhibition at 250 g/ha: Digitaria, read-out: Growth inhibition rate (%) Crabgrass. The gist of the method: as §2
For test [13], the system named is green foxtail (Setaria viridis L.). The test can be described thus: Test Example 2: soil application on the day after sowing, green foxtail. Particulars: 250 g/ha active ingredient, observed 19th to 28th day after application; for inhibition at 250 g/ha: Setaria viridis, read-out: Growth inhibition rate (%) Green foxtail. The gist of the method:
as §2

The test system of test [14] is redroot pigweed (Amaranthus retroflexus L.). The test can be described thus: Test Example 2: soil application on the day after sowing, redroot pigweed. The following applies: 250 g/ha active ingredient, observed 19th to 28th day after application; for inhibition at 250 g/ha: Amaranthus retroflexus, read-out: Growth inhibition rate (%) Redroot pigweed. Summed up:
as §2

Test [15] deals with prickly sida (Sida spinosa L.). The test can be described thus: Test Example 2: soil application on the day after sowing, prickly sida. The following applies: 250 g/ha active ingredient, observed 19th to 28th day after application; for inhibition at 250 g/ha: Sida spinosa, read-out: Growth inhibition rate (%) Prickly sida. The gist of the method:
as §2

Test [16] has as its system velvetleaf (Abutilon theophrasti MEDIC.). In words: Test Example 2: soil application on the day after sowing, velvetleaf. Particulars: 250 g/ha active ingredient, observed 19th to 28th day after application; for inhibition at 250 g/ha: Abutilon theophrasti, read-out: Growth inhibition rate (%) Velvetleaf. The gist of the method: as §2
Test [17] relates to rice (Oryza sativa L.). The test can be described thus: Test Example 2: soil application on the day after sowing, rice. The following applies: 250 g/ha active ingredient, observed 19th to 28th day after application; for inhibition at 250 g/ha: Oryza sativa, read-out: Growth inhibition rate (%) Rice. Summed up: as §2
For test [18], the system named is wheat (Triticum spp.). The test can be described thus: Test Example 2: soil application on the day after sowing, wheat. Particulars: 250 g/ha active ingredient, observed 19th to 28th day after application; for inhibition at 250 g/ha: Triticum, read-out: Growth inhibition rate (%) Wheat. From the text: Upland field soil was put into a 1/170,000 hectare pot, and seeds of various plants barnyardgrass (Echinochloa crus-galli L.), crabgrass (Digitaria sanquinalis L.), green foxtail (Setaria viridis L.), redroot pigweed (Amaranthus retroflexus L.), prickly sida (Sida spinosa L.), velvetleaf (Abutilon theophrasti MEDIC.), rice (Oryza sativa L.), wheat (Triticum spp.), corn (Zea mays L.) and soybean (Glycine max Merr.)) were sown. On the day after sowing, wettable powders or emulsifiable concentrates of the compounds of the above formula (I) prepared in accordance with a conventional preparation method, were weighed so that the active ingredients became the prescribed amounts, and diluted with water in an amount corresponding to 500 liter per 1 hectare, followed by soil application with a small sprayer.
On the 19th to 28th day after the application, the state of growth of the respective plants was visually observed, and the herbicidal effect was evaluated by a growth inhibition rate (%) of from 0 (equivalent to the non-treated area) to 100% (complete kill).

Test [19] relates to corn (Zea mays L.). In words: Test Example 2: soil application on the day after sowing, corn. Particulars: 250 g/ha active ingredient, observed 19th to 28th day after application; for inhibition at 250 g/ha: Zea mays, read-out: Growth inhibition rate (%) Corn. Summed up: as §2
For test [20], the system named is soybean (Glycine max Merr.). The test can be described thus: Test Example 2: soil application on the day after sowing, soybean. Particulars: 250 g/ha active ingredient, observed 19th to 28th day after application; for inhibition at 250 g/ha: Glycine max, read-out: Growth inhibition rate (%) Soybean. The gist of the method: as §2

Consider `Cc1c(C(=O)c2cnn(C)c2O)ccc(S(C)(=O)=O)c1OC(F)F` [compound 146], for which the inhibition at 31 g/ha worked out at 80% in [1]; 30% in test [2]; 30% in test [3]; 80% in [4]; 40% in test [5]; 50% in test [6]. Further, the inhibition at 31 g/ha worked out at 20% in the test on rice (Oryza sativa L.) [7], 0% in the test with wheat (Triticum spp.) [8], 0% in the test on corn (Zea mays L.) [9] and 60% in [10]. Also, the inhibition at 250 g/ha stood at 90% in test [11]; 100% in test [12]; 95% in test [13]; 100% in [14]; 90% in test [15]; 40% in test [16]. Further, the inhibition at 250 g/ha in the test with rice (Oryza sativa L.) [17] is 70%; in the test with wheat (Triticum spp.) [18] it was 0%; in the test with corn (Zea mays L.) [19] it was 0%; in [20], 0%.
On to `CCOC(=O)c1c(S(C)(=O)=O)ccc(C(=O)c2cnn(CC)c2O)c1Cl` [compound 153], for which the inhibition at 31 g/ha in [1] worked out at 90%; in [2], 80%; in test [3], 60%; in test [4], 90%; in test [5], 70%; in test [6], 70%. Also, the inhibition at 31 g/ha in the test on rice (Oryza sativa L.) [7] turned out to be 40%; with wheat (Triticum spp.) [8], 0%; with corn (Zea mays L.) [9], 0%; in test [10], 70%. Besides, the inhibition at 250 g/ha came to 100% in [11]; 100% in test [12]; 100% in [13]; 100% in test [14]; 80% in test [15]; 100% in test [16]. For the same molecule, the inhibition at 250 g/ha was 70% with rice (Oryza sativa L.) [17], 10% in the test with wheat (Triticum spp.) [18], 10% in the test with corn (Zea mays L.) [19] and 0% in test [20].
As for `CCCOC(=O)c1c(S(C)(=O)=O)ccc(C(=O)c2cnn(CC)c2O)c1Cl` [compound 154], the “Growth inhibition rate (%) Barnyardgrass” value is on record as 40% in test [1] and 100% in test [11]. For the same molecule, the “Growth inhibition rate (%) Crabgrass” value was found to be 70% in test [2] and 95% in test [12]. Further, the “Growth inhibition rate (%) Green foxtail” value was 60% in test [3] and 30% in test [13]. Further, the “Growth inhibition rate (%) Redroot pigweed” value in test [4] is on record as 70%; in test [14] it was 100%. For the same molecule, the “Growth inhibition rate (%) Prickly sida” value in test [5] was 40%; in test [15], 60%. The “Growth inhibition rate (%) Velvetleaf” value in [6] is listed as 60%; in [16] it was 40%. The “Growth inhibition rate (%) Rice” value with rice (Oryza sativa L.) [7] and in the test with rice (Oryza sativa L.) [17] was 50% each time. In addition, the “Growth inhibition rate (%) Wheat” value in the test with wheat (Triticum spp.) [8] and in the test with wheat (Triticum spp.) [18] was 0% in each case. In addition, the “Growth inhibition rate (%) Corn” value with corn (Zea mays L.) [9] and in the test on corn (Zea mays L.) [19] was 0% each time. The “Growth inhibition rate (%) Soybean” value amounted to 30% in test [10] and 0% in test [20].
With `Cc1c(C(=O)c2cnn(C)c2O)ccc(S(C)(=O)=O)c1C#N` [compound 171], the inhibition at 31 g/ha was found to be 80% in test [1]; 60% in test [2]; 70% in [3]; 80% in test [4]; 70% in [5]; 75% in test [6]. Besides, the inhibition at 31 g/ha turned out to be 40% in the test with rice (Oryza sativa L.) [7], 0% in the test with wheat (Triticum spp.) [8], 0% in the test on corn (Zea mays L.) [9] and 70% in [10]. Further, the inhibition at 250 g/ha came out at 70% in [11]; 80% in test [12]; 40% in test [13]; 100% in test [14]; 50% in [15]; 40% in [16]. Besides, the inhibition at 250 g/ha in the test on rice (Oryza sativa L.) [17] amounted to 10%; in the test with wheat (Triticum spp.) [18], 0%; with corn (Zea mays L.) [19] it was 0%; in test [20] it was 10%.
For the molecule `Cn1ncc(C(=O)c2ccc(S(C)(=O)=O)c(Cl)c2Cl)c1O` [compound 238], the inhibition at 31 g/ha came out at 0% in test [1]; 0% in [2]; 0% in test [3]; 50% in test [4]; 0% in [5]; 30% in test [6]. Besides, the inhibition at 31 g/ha was found to be 0% in the test on rice (Oryza sativa L.) [7], 0% in the test on wheat (Triticum spp.) [8], 0% in the test with corn (Zea mays L.) [9] and 50% in test [10]. Further, the inhibition at 250 g/ha came out at 0% in test [11]; 20% in test [12]; 20% in test [13]; 30% in [14]; 0% in test [15]; 0% in test [16]. Besides, the inhibition at 250 g/ha (with rice (Oryza sativa L.) [17]; in the test on wheat (Triticum spp.) [18]; in the test with corn (Zea mays L.) [19]; in test [20]) was 0% each time.

For orientation: inhibition means the change of the read-out against control, counted positive when it falls.
